From PMC12858405, “Ideal efficacy photoswitching for chromocontrol of TRPC4/5 channel functions in live tissues” (Nature Chemical Biology, 2026)

Target: T1, TRPC4β-SYFP2 (Homo sapiens, UniProt Q9UBN4)
T1 construct: expressed in transfected cells; host or cells: HEK 293 (ATCC CRL 1573), transiently transfected (jetPRIME)
T1 sequence (Q9UBN4 1-893 isoform Q9UBN4-2): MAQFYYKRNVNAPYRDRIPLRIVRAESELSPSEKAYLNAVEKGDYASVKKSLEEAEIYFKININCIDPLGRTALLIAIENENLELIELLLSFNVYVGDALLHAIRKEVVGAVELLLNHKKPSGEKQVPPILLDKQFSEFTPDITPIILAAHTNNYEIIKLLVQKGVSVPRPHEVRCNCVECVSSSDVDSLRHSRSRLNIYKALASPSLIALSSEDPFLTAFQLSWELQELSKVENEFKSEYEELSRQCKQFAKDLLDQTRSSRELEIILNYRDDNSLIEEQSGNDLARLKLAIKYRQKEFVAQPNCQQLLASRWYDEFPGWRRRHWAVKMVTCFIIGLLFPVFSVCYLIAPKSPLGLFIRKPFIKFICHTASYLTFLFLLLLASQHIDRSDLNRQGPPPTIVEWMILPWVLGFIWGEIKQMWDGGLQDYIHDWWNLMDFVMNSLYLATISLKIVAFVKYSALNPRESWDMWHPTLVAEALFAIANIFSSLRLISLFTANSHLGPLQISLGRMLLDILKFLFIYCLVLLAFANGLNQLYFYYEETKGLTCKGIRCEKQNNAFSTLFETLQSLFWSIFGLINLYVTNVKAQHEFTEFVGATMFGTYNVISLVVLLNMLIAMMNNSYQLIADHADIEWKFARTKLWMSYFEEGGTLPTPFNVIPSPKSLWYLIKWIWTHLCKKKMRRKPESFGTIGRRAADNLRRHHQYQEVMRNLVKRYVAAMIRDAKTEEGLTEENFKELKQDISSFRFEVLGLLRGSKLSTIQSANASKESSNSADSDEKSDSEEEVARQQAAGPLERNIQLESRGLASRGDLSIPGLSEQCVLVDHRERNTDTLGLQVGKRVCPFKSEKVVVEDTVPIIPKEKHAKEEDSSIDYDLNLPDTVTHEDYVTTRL
Assay: Fura-2 [Ca2+]i recordings, HEK 293 transiently expressing TRPC4β-SYFP2
Type: cell-based
Conditions: AzHC 10-1000 nM, AM237 100 nM
Description: Müller, Niemeyer, et al., Schaefer & Thorn-Seshold 2025: Ideal Efficacy Photoswitching of TRPC4/5 in Tissue […]
1.4.4 Differences and selectivity between TRPC5 and TRPC4?
AM237 activates TRPC5 but inhibits EA mediated activation of TRPC4; Pico145 inhibits both TRPC4 and TRPC5. Thus, somewhat naively, it could be argued that it is the para substituent here which affects both the efficacy mode and the selectivity for TRPC4 and/or TRPC5.
Intriguingly, Z-AzPico activates TRPC4 and TRPC5 with low nanomolar potency whereas Z-AzHC only activates TRPC5 but not TRPC4. Therefore, the meta substituent is now responsible for the selectivity in this case. The cryo-EM structures of Pico145 and HC-070 in complex with TRPC5 indicated the same binding site but the southern phenyl ring bearing the OCF3/Cl group is flipped and pointing in opposite directions.
Z isomers, i.e. Z-buried vs. E-projected. Additionally, both E-AzPico and E-AzHC inhibit EA […]
It is not surprising that both ligands bind to either protein because there is a high sequence similarity among the TRPC family in the identified binding pocket for Pico145 /HC-070, and in the binding region, human TRPC4/5 differ only by a single amino acid (TRPC5: V579, TRPC4: I579). We […]
the result of differences in this residue. […]
Intracellular calcium ([Ca2+]i) was measured using the ratiometric Ca2+ dye Fura-2. […]

Structure (SMILES)	Effect on [Ca2+]i, TRPC4
Cn1c(=O)n(CCCO)c(=O)c2c1nc(Oc1ccc(Cl)c(OC(F)(F)F)c1)n2Cc1ccc(Cl)cc1 [AM237, reference compound]	do not activate
Cn1c(=O)n(CCCO)c(=O)c2c1nc(Oc1ccc(/N=N\c3ccccc3)c(Cl)c1)n2Cc1ccc(Cl)cc1 [Z*-AzHC]	do not activate
